The first assay deals with Rattus norvegicus. The experiment in a line: Fibrinolytic activity in ip dosed rat assessed as blood clot lysis for 4 hrs. Format: functional.
Details: not given
As to `COc1ccc(C(N)CCCCCCCC2NCCc3cc(OC)c(OC)cc32)cc1OC.Cl` (racemic; 31b), the ED50 amounted to 0.5 mg/kg.

Staying with this assay, now noted: Rattus norvegicus, Blood clot, ip, 4 h; read-out: ED50.
`COc1cc2c(cc1OC)C(CCCCC1NCCc3cc(OC)c(OC)cc31)NCC2.Cl` (centres undefined): the ED50 was 0.3 mg/kg. On to `COc1ccc2c(c1)CCNC2CCCCC1NCCc2cc(OC)ccc21.Cl` (centres undefined), for which the ED50 came to 2 mg/kg.

In the case of `COc1ccc2c(c1)CCNC2CCCCCCCC1NCCc2cc(OC)ccc21.Cl` (centres undefined), the ED50 was 6 mg/kg. In the case of `COc1ccc(C(N)CCCCC(N)c2ccc(OC)c(OC)c2)cc1OC.Cl` (centres undefined), the ED50 amounted to 0.4 mg/kg. Take `COc1cc2c(cc1OC)C(CCCCC1NCCCc3cc(OC)c(OC)cc31)NCCC2.Cl` (centres undefined): the 50% effective dose (ED50) was found to be 0.7 mg/kg. The same measure, in the same setting: for `COc1ccc2[nH]c3c(c2c1)CCNC3CCCCC1NCCc2c1[nH]c1ccc(OC)cc21.Cl` (centres undefined) the value was 6 mg/kg; for `COc1ccc2[nH]c3c(c2c1)CCNC3CCCCCCCC1NCCc2c1[nH]c1ccc(OC)cc21.Cl` (centres undefined), 2 mg/kg; for `COc1ccc(C(N)CCCCC2NCCc3cc(OC)c(OC)cc32)cc1OC.Cl` (centres undefined), 0.9 mg/kg. The same measure, in the same setting: for `COc1ccc(C(N)CCCCCCC2NCCc3cc(OC)c(OC)cc32)cc1OC.Cl` (centres undefined) the value was 1 mg/kg; for `COc1ccc(CC(N)CCCCC(N)Cc2ccc(OC)c(OC)c2)cc1OC.Cl` (centres undefined), 15 mg/kg. Still for that read-out and setting: next, `COc1cc(CCCCCCc2cc(OC)c(OC)cc2C(C)N)c(C(C)N)cc1OC.Cl` (centres undefined): 4 mg/kg; `COc1ccc(C(N)CCCCCCCC2NCCc3cc(OC)c(OC)cc32)cc1OC.Cl` (racemic; 31a): 0.7 mg/kg.

For the compound `NCCc1c[nH]c2ccc(O)cc12` [SEROTONIN], the ED50 was 1 mg/kg.
